Assay results as given in patent US20080020421A1, “METHODS OF SCREENING AGENTS FOR CYTOTOXIC AND ANTIMICROBIAL ACTIVITY” (priority 2006, published 2008).

How the values were obtained:
[1] = system: HeLa-GFP cells; assay: HeLa-GFP fluorometric cytotoxicity assay; details: for Percent-GFP-fluorescence after incubation with test compounds, HeLa-GFP (2 μg/ml) / Percent-GFP-fluorescence after incubation with test compounds, HeLa-GFP (20 μg/ml): 18 h incubation, relative to untreated (DMSO) cells
Method: Cell culture. HeLa-GFP cells were cultured in DMEM media supplemented with 10% heat-inactivated newborn calf serum as previously described (Montoya et al., 2004). Stock cultures were prewashed twice with PBS before the treatment of trypsin for cell resuspension and subsequently re-plated at the concentration of 4,000 cells/well.
HeLa-GFP fluorometric cytotoxicity assay. All cell lines were seeded in clear-bottomed 96-well assay plates (3603, Costar, Corning Inc., Corning, N.Y.) in order to minimized background fluorescence. HeLa cells were grown in a total volume of 0.2 ml of medium and incubated overnight for proper cell attachment. The quinone compounds were then added to each well (in triplicate) and then incubated for a period of 18 hr. For the determination of fluorescence, the assay plates were then read using the Fluoroskan Ascent F1 fluorometer (Thermo Electron Corp.) set at the excitation and emission parameters of 485 and 518 nm, respectively. Since the HeLa-GFP cell line is adherent, the fluorometer was set to read from the bottom of the plate for closer proximity to the cells. Before the readings were performed, all supernatant media was removed to avoid any background interference and thus enhancing the sensitivity of the optical readings. For calibration purposes, three untreated control wells were used to determine the maximum level of fluorescence (100%). […] As a cytolysis control (complete loss of fluorescence), three wells containing cells were exposed to 0.2 ml of deionized water. These controls were then used to calculate the percent loss of GFP signal after compound exposure as determined by comparison with control wells containing cells that were not exposed to the chemical agent (see data analysis below).
Data analysis. All compounds, including controls, were screened in triplicate. The average of the three wells that were used for the removal of the background fluorescence (wells containing water for the HeLa-GFP assays and wells containing media alone for bacteria) was subtracted from each individual well. The mean of these triplicate values for each compound was then obtained. These mean values were then divided by the average obtained for maximum fluorescence (cells not treated with compound) and then multiplied by 100 to obtain the percentage values as shown in Table 1.

[2] = system: E. coli-GFP; assay: Toxicity assay with GFP-expressing E. coli; details: for Percent-GFP-fluorescence after incubation with test compounds, E. coli-GFP (20 μg/ml): 10 h incubation, relative to untreated bacteria
Method: (§1) E. coli-GFP cells were grown in LB broth media while the MAC104 M. avium strain was grown in 7H9-ADC media.
(§2) Toxicity assays with GFP-expressing bacteria. E. coli was transformed with a GFP-expression plasmid that also confers tetracycline resistance was kindly provided by Dr. David Schneider (Elrod-Erickson et al., 2000). […] Both bacterial strains were grown and selected based on antibiotic resistance and GFP expression. All toxicity assays were performed using the plates and fluorometric parameters described in the previous section. Bacterial cell suspensions were seeded in a final volume of 100 μl at an optical density of 0.05 and 0.25 at 650 nm, for E. coli-GFP and M. avium-GFP, respectively. After exposure to the test compounds, assay plates were incubated at 37° C. in a humid environment to prevent dehydration in the wells. Unlike the HeLa-GFP assays, reading were performed without removing the supernatants to avoid loss of cells. Several untreated wells containing bacteria and media were used to determine the maximum level of fluorescence. Several wells containing media alone (no bacteria) were included in each assay to remove background fluorescence.
(§3) Data analysis. All compounds, including controls, were screened in triplicate. The average of the three wells that were used for the removal of the background fluorescence (wells containing water for the HeLa-GFP assays and wells containing media alone for bacteria) was subtracted from each individual well. The mean of these triplicate values for each compound was then obtained.

[3] = system: M. avium-GFP (strain MAC104); assay: Toxicity assay with GFP-expressing M. avium; details: for Percent-GFP-fluorescence after incubation with test compounds, M. avium-GFP (20 μg/ml): 18 h incubation, relative to untreated bacteria
Method: as §1, §2, §3

[4] = loss of GFP signal, Table 1 screen

Structure (SMILES)	Percent-GFP-fluorescence after incubation with test compounds, HeLa-GFP (2 μg/ml) [1] [%]	Percent-GFP-fluorescence after incubation with test compounds, HeLa-GFP (20 μg/ml) [1] [%]	Percent-GFP-fluorescence after incubation with test compounds, E. coli-GFP (20 μg/ml) [2] [%]	Percent-GFP-fluorescence after incubation with test compounds, M. avium-GFP (20 μg/ml) [3] [%]	toxicity to HeLa-GFP cells (in words) [1, 4]	toxicity to E. coli (in words) [2, 4]	toxicity to M. avium (in words) [3, 4]
CCOC(=O)c1ccccc1C1=C(CNC(=O)OC(C)(C)C)C(=O)c2ccccc2C1=O [Compound Q34]	86.0	49.0	87.0	64.0			
CCCCCCC1=CC(=O)c2c(OC)cccc2C1=O [Compound Q17]	80.0	18.0	115.0	100.0			
CCOC(=O)c1cccc(C2=C(CN(C(=O)OC(C)(C)C)C(=O)OC(C)(C)C)C(=O)c3ccccc3C2=O)c1 [Compound Q37]	90.0	62.0	105.0	92.0			
COC(=O)c1ccccc1C1=C(CN(C(=O)OC(C)(C)C)C(=O)OC(C)(C)C)C(=O)c2ccccc2C1=O [Compound Q33]	88.0	62.0	102.0	74.0			
COC(=O)c1ccccc1C1=C(CNC(=O)OC(C)(C)C)C(=O)c2ccccc2C1=O [Compound Q32]	88.0	57.0	99.0	80.0			
O=C1C=C(CCCO)C(=O)c2ccccc21 [Compound Q14]	83.0	29.0	90.0	58.0			
O=C1C=CC(=O)c2c(O)cccc21 [Compound Q2]	14.0	29.0	111.0	72.0			
CCCCC12OC1C(=O)c1ccccc1C2=O (centres unmarked) [Compound Q24]	5.0	23.0	87.0	202.0			
CCCC12OC1(CCC)C(=O)c1ccccc1C2=O (centres unmarked) [Compound Q26]	26.0	27.0	110.0	97.0			
CCCCCCCC1=CC(=O)c2ccccc2C1=O [Compound Q12]	81.0	14.0	82.0	66.0			
CCOC(=O)c1ccc(C2=C(CNC(=O)OC(C)(C)C)C(=O)c3ccccc3C2=O)cc1 [Compound Q38]	81.0	61.0	103.0	119.0			
CCCCCCCC1=CC(=O)c2c(OC)cccc2C1=O [Compound Q18]	88.0	22.0	112.0	127.0			
CC12OC1(c1ccccc1)C(=O)c1ccccc1C2=O (centres unmarked) [Compound Q21]	57.0	23.0	122.0	57.0			
C[Si](C)(C)n1nnc(C2=C(CO)C(=O)c3ccccc3C2=O)c1CO [Compound Q31]	88.0	82.0	107.0	94.0			
O=C1c2ccccc2C(=O)C2(c3ccccc3)OC12c1ccccc1 (centres unmarked) [Compound Q20]	28.0	29.0	86.0	77.0			
CCOC(=O)c1ccc(C2=C(CN(C(=O)OC(C)(C)C)C(=O)OC(C)(C)C)C(=O)c3ccccc3C2=O)cc1 [Compound Q39]	88.0	62.0	108.0	96.0			
CCCC1=C(CC)C(=O)c2ccccc2C1=O [Compound Q13]	89.0	21.0	93.0	72.0			
CC(C)=CCC1=C(O)C(=O)c2ccccc2C1=O [Compound Q4, lapachol, reference compound]	70.0	3.0	56.0	26.0			
CCCCCCC1=CC(=O)c2ccccc2C1=O [Compound Q11]	84.0	14.0	98.0	69.0			
O=C1C(c2ccccc2)=C(c2ccccc2)C(=O)c2ccccc21 [Compound Q6]	78.0	20.0	105.0	55.0			
CCOC(=O)c1cccc(C2=C(CNC(=O)OC(C)(C)C)C(=O)c3ccccc3C2=O)c1 [Compound Q36]	89.0	59.0	100.0	93.0			
COc1ccc(CC(=O)n2nnc(C3=C(CO)C(=O)c4ccccc4C3=O)c2CO)cc1 [Compound Q30]	84.0	47.0	105.0	96.0			
CCOC(=O)C1=C(CC)C(=O)c2ccccc2C1=O [Compound Q15]	85.0	53.0	80.0	40.0			
CCCCC12OC1(c1ccccc1)C(=O)c1ccccc1C2=O (centres unmarked) [Compound Q22]	75.0	14.0	110.0	91.0			
CCCC1=C(CCC)C(=O)c2c(OC)cccc2C1=O [Compound Q19]	78.0	38.0	99.0	73.0			
CCOC(=O)c1ccccc1C1=C(CN(C(=O)OC(C)(C)C)C(=O)OC(C)(C)C)C(=O)c2ccccc2C1=O [Compound Q35]	85.0	58.0	104.0	108.0			
CC1=CC(=O)c2ccccc2C1=O [Compound Q5, menadione, reference compound]	13.0	22.0	58.0	69.0	highly toxic	highly toxic	highly toxic
CCCCCC1=C(C)C(=O)c2ccccc2C1=O [Compound Q9]	90.0	31.0	115.0	85.0			
CCCC1=CC(=O)c2c(OC)cccc2C1=O [Compound Q16]	78.0	10.0	127.0	105.0			
